The compounds below were run on HCT116 colorectal cancer cells (assay: Cisplatin sensitization assay (96 h cell viability MTS)). Settings: compound and Cisplatin added simultaneously, Cisplatin sensitization value.
Format: cell-based
In short: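 Viability read by MTS (1 h at 37° C) after 96 h co-exposure at 37° C, 5% CO2. Test compound and cisplatin were dosed simultaneously in a full concentration matrix, each 2-fold serially diluted from 10 μM final; sensitization values binned in μM.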
In the case of `Nc1nn2cc(F)cnc2c1C(=O)Nc1cnccc1OC1CCS(=O)(=O)CC1` [I-O-45, 2-amino-N-(4-((1,1-dioxidotetrahydro-2H-thiopyran-4-yl)oxy)pyridin-3-yl)-6-fluoropyrazolo[1,5-a]pyrimidine-3-carboxamide], the “Cisplatin Sensitization Assay” value is reported as “+++ (Cisplatin sensitization value of <0.02 μM)”.
In the case of `CN1CCC(Oc2c(Cl)cncc2NC(=O)c2c(N)nn3cc(Cl)cnc23)CC1` [I-O-46, 2-amino-6-chloro-N-(5-chloro-4-((1-methylpiperidin-4-yl)oxy)pyridin-3-yl)pyrazolo[1,5-a]pyrimidine-3-carboxamide], the “Cisplatin Sensitization Assay” value is reported as “+ (Cisplatin sensitization value>0.2 μM but <5 μM)”.
In the case of `CN(C)CCOCCOc1ccncc1NC(=O)c1c(N)nn2cc(Cl)cnc12` [I-O-47, 2-amino-6-chloro-N-(4-(2-(2-(dimethylamino)ethoxy)ethoxy)pyridin-3-yl)pyrazolo[1,5-a]pyrimidine-3-carboxamide], the “Cisplatin Sensitization Assay” value is reported as “+ (Cisplatin sensitization value>0.2 μM but <5 μM)”.
In the case of `CN(C)CCOc1ccncc1NC(=O)c1c(N)nn2cc(Cl)cnc12` [I-O-48, 2-amino-6-chloro-N-(4-(2-(dimethylamino)ethoxy)pyridin-3-yl)pyrazolo[1,5-a]pyrimidine-3-carboxamide], the “Cisplatin Sensitization Assay” value is reported as “++ (Cisplatin sensitization value>0.02 μM but <0.2 μM)”.
With `CN1CCC[C@@H]1COc1ccncc1NC(=O)c1c(N)nn2cc(Cl)cnc12` [I-O-49, (R)-2-amino-6-chloro-N-(4-((1-methylpyrrolidin-2-yl)methoxy)pyridin-3-yl)pyrazolo[1,5-a]pyrimidine-3-carboxamide] the “Cisplatin Sensitization Assay” value was “+ (Cisplatin sensitization value>0.2 μM but <5 μM)”.
In the case of `CN1CCC[C@H]1COc1ccncc1NC(=O)c1c(N)nn2cc(Cl)cnc12` [I-O-50, (S)-2-amino-6-chloro-N-(4-((1-methylpyrrolidin-2-yl)methoxy)pyridin-3-yl)pyrazolo[1,5-a]pyrimidine-3-carboxamide], the “Cisplatin Sensitization Assay” value is reported as “+ (Cisplatin sensitization value>0.2 μM but <5 μM)”.
With `CN(C)CCCOc1ccncc1NC(=O)c1c(N)nn2cc(Cl)cnc12` [I-O-52, 2-amino-6-chloro-N-(4-(3-(dimethylamino)propoxy)pyridin-3-yl)pyrazolo[1,5-a]pyrimidine-3-carboxamide] the “Cisplatin Sensitization Assay” value was “+ (Cisplatin sensitization value>0.2 μM but <5 μM)”.
For `Nc1nn2cc(Cl)cnc2c1C(=O)Nc1cnccc1OCCCO` [I-O-53, 2-amino-6-chloro-N-(4-(3-hydroxypropoxy)pyridin-3-yl)pyrazolo[1,5-a]pyrimidine-3-carboxamide], the “Cisplatin Sensitization Assay” value was “+++ (Cisplatin sensitization value of <0.02 μM)”.
For `Nc1nn2cc(Cl)cnc2c1C(=O)Nc1cnccc1O[C@@H]1CCOC1` [I-O-54, (R)-2-amino-6-chloro-N-(4-((tetrahydrofuran-3-yl)oxy)pyridin-3-yl)pyrazolo[1,5-a]pyrimidine-3-carboxamide], the “Cisplatin Sensitization Assay” value was “+++ (Cisplatin sensitization value of <0.02 μM)”.
For `COCCOc1ccncc1NC(=O)c1c(N)nn2cc(Cl)cnc12` [I-O-55, 2-amino-6-chloro-N-(4-(2-methoxyethoxy)pyridin-3-yl)pyrazolo[1,5-a]pyrimidine-3-carboxamide], the “Cisplatin Sensitization Assay” value was “++ (Cisplatin sensitization value>0.02 μM but <0.2 μM)”.
With `CCOc1ccncc1NC(=O)c1c(N)nn2cc(Cl)cnc12` [I-O-56, 2-amino-6-chloro-N-(4-ethoxypyridin-3-yl)pyrazolo[1,5-a]pyrimidine-3-carboxamide] the “Cisplatin Sensitization Assay” value was “+++ (Cisplatin sensitization value of <0.02 μM)”.
For `COc1ccncc1NC(=O)c1c(N)nn2cc(Cl)cnc12` [I-O-57, 2-amino-6-chloro-N-(4-methoxypyridin-3-yl)pyrazolo[1,5-a]pyrimidine-3-carboxamide], the “Cisplatin Sensitization Assay” value was “+++ (Cisplatin sensitization value of <0.02 μM)”.

Reference: patent publication US11370798B2 (Vertex Pharmaceuticals Incorporated, priority 2012, dated 2022)
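Further: Test-compound concentration that lowers the Cisplatin IC50 by a set fold.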
